Data taken from US12673930B2, “Thiophene HSD17B13 inhibitors and uses thereof” (INIPHARM, INC., priority 2020, dated 2026).

Each molecule was assayed against T1, HSD17B13 enzyme (Homo sapiens, UniProt Q7Z5P4) (assay: NADH detection assay (fluorescence based Leukotriene B3 (LTB3) assay) for HSD17B13 activity). Conditions: substrate 25 μM LTB3, 3 mM NAD+, 125 nM HSD17B13 enzyme, 1 hour at 26.5° C.
T1 construct: His; made in house; host or cells: E. coli
T1 sequence (Q7Z5P4 20-300): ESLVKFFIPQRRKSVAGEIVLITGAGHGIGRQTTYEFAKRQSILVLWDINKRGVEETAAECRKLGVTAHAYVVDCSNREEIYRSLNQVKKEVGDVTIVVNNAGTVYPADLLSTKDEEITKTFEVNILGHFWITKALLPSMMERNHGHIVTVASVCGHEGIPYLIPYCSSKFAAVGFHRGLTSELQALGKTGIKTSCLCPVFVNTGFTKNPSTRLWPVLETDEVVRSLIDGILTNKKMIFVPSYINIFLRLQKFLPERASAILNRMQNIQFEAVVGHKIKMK
Format: biochemical
Protocol: The fluorescence based Leukotriene B3 (LTB3) assay monitors the fluorescence of NADH, which is generated from NAD+ during the dehydrogenation of the substrate LTB3. The reactions were performed in a 384-well plates (Greiner; #655076) in a 20 μl reaction volume containing the following reagents (final concentrations): 25 μM LTB3 (Cayman; #20109); 3 mM NAD^+ (Sigma; #N0623); 125 nM HSD17B13 enzyme (in-house; E. coli expressed His-tagged, purified, soluble protein); 1 M potassium phosphate buffer, pH 7.4; and 1% DMSO. Reactions were initiated by co-addition of NAD+ and enzyme, and monitored for 1 hour at 26.5° C. Generation of NADH was measured as the fluorescence signal (Excitation at 340 nm and Emission at 445 nm) at 1 hour minus the baseline fluorescence at t=0. Fluorescence signals in the absence of LTB3 (negative control values), were subtracted from all values so that the results reflected substrate-dependent production of NADH. NADH standards were included to allow the conversion of relative fluorescence units into rates of enzyme activity. Enzyme activity in the presence of test compounds was expressed as a percentage of the uninhibited enzyme activity, and plotted versus inhibitor concentration. Non-linear regression was performed using a four-parameter logistic model and Microsoft Excel Solver® software. Ten concentrations of inhibitor were tested in duplicate (in the range of 30 μM-2.5 nM). Two independent concentration response assays were performed and the geometric mean is reported, =/−the SEM.

SMILES | IC50 [nM]
COc1ccccc1CCNC(=O)c1sccc1NC(=O)c1ccc(OCC(=O)O)c(Cl)c1 [Example 11, 2-(2-chloro-4-((2-((2-methoxyphenethyl)carbamoyl)thiophen-3-yl)carbamoyl)phenoxy)acetic acid] | > 10000
COc1ccccc1CCNC(=O)c1sccc1NC(=O)c1cnc(O)c(Cl)c1 [Example 21, 5-chloro-6-hydroxy-N-(2-((2-methoxyphenethyl)carbamoyl)thiophen-3-yl)nicotinamide] | > 10000
COc1ccccc1CCNC(=O)c1sccc1NC(=O)c1ccc(CCC(=O)O)c(F)c1 [Example 22, 3-(2-fluoro-4-((2-((2-methoxyphenethyl)carbamoyl)thiophen-3-yl)carbamoyl)phenyl) propanoic acid] | > 10000
COc1ccccc1CCNC(=O)c1sccc1NC(=O)c1cc(Cl)c(O)c(C(C)C)c1 [Example 23, 3-(3-chloro-4-hydroxy-5-isopropylbenzamido)-N-(2-methoxyphenethyl)thiophene-2-carboxamide] | > 10000
COc1ccccc1CCNC(=O)c1sccc1NC(=O)c1cc(Cl)c(O)c(Cl)c1 [Example 32, 3-(3,5-dichloro-4-hydroxybenzamido)-N-(2-methoxyphenethyl)thiophene-2-carboxamide] | ≤ 1000

Now from value to molecule:

IC50 [nM] | SMILES
≤ 1000 | COc1ccccc1CCNC(=O)c1sccc1NC(=O)c1ccc(O)c(Cl)c1 [Example 1, 3-(3-chloro-4-hydroxybenzamido)-N-(2-methoxyphenethyl)thiophene-2-carboxamide]
≤ 1000 | CC(C)CNC(=O)c1sccc1NC(=O)c1ccc(O)c(Cl)c1 [Example 2, 3-(3-chloro-4-hydroxybenzamido)-N-isobutylthiophene-2-carboxamide]
≤ 1000 | CC(C)(C)CCNC(=O)c1sccc1NC(=O)c1ccc(O)c(Cl)c1 [Example 3, 3-(3-chloro-4-hydroxybenzamido)-N-(3,3-dimethylbutyl)thiophene-2-carboxamide]

These molecules were tested against T1, HSD17B13 enzyme (assay: LC/MS estrone detection assay (conversion of estradiol to estrone by HSD17B13)). Conditions: substrate 4 μM estradiol, 6 mM NAD+, 30 nM HSD17B13 enzyme, 2 hours at 26.5° C.
Format: biochemical
Protocol: The liquid chromatography/mass spectrometry (LC/MS) estrone detection assay monitors the conversion of estradiol to estrone by HSD17B13. This assay was performed in a 96 wp format (Eppendorf deep well Plate 96/500) in an 80 μl reaction volume containing: 4 μM estradiol (E2; Cayman; Ser. No. 10/006,315); 6 mM NAD^+ (Sigma; #N0623), and 30 nM HSD17B13 enzyme (in-house; E. coli expressed His-tagged, purified, soluble protein), in a buffer containing 1M potassium phosphate buffer pH 7.4 and 0.5% vehicle (DMSO). Reactions were incubated for 2 hours at 26.5° C., and estradiol (E2) conversion to estrone (E1) was quantitated by LC-MS/MS based analyte detection for E1 using LCMS grade reagents. Reactions were terminated by the addition of two volumes of acetonitrile (MeCN; LCMS grade; CAS #75/05/8) containing deuterated (D4)-E1 as internal standard (Clear Synth; #CS-T-54273; 500 ng/mL final concentration). Samples were applied to pre-prepared Bond Elut-C18 extraction cartridges (3 mL; Agilent; Ser. No. 12/102,028), and washed and eluted in MeCN. Eluates were dried under nitrogen and re-suspended in 60% methanol (LCMS grade methanol; CAS #67/56/1) before submission for analysis. Standard curves for E1 were included for quantification. Analysis of samples was undertaken on a XBridge BEH C18 column (Waters; #186003033) using 0.1% Diethyl Amine in MeCN (mobile phase A; DEA CAS #109-89-7) and 0.1% Diethyl Amine in milli-Q water (mobile phase B) in a 3 min gradient up to 25% B. Analytes were detected in negative mode using MRM analysis, with E2 having a RT of 1.85 min and E1 having a RT of 2 min. Activity of the enzyme in the absence of NAD^+, was subtracted from samples to yield values for specific enzyme activity. Enzyme activity in the presence of test samples was expressed as a percentage of the uninhibited enzyme activity, and plotted versus inhibitor concentration. Non-linear regression was performed using the Morrison equation (see below) for tight binding inhibitors on GraphPad Prism software (GraphPad Software, La Jolla, Calif.). All assessments were undertaken in duplicate evaluations which were pooled during the extraction process and subsequently injected as duplicates for LC-MS/MS analysis. Y=Vo*(1−((((Et+X+Q)−(((Et+X+Q)^2)−4*Et*X)^0.5))/(2*Et))) Morrison equation:
Y=Activity in the presence of inhibitor; Vo=Activity in absence of inhibitor; Et=Total enzyme concentration; X=inhibitor concentration; and Q=(Ki*(1+(S/Km))), where Ki is the inhibition constant, Km is the Michaelis constant, and S is the substrate concentration.

SMILES | IC50 [nM]
O=C(Nc1cc(Cl)sc1C(=O)NCCc1ccc(F)cc1Cl)c1ccc(O)c(F)c1 [Example 34, 5-chloro-N-(2-chloro-4-fluorophenethyl)-3-(3-fluoro-4-hydroxybenzamido) thiophene-2-carboxamide] | 100 to 1000
CN1CCN(CCNC(=O)c2sc(Cl)cc2NC(=O)c2ccc(O)c(F)c2)CC1 [Example 37, 5-chloro-3-(3-fluoro-4-hydroxybenzamido)-N-(2-(4-methylpiperazin-1-yl)ethyl)thiophene-2-carboxamide] | 100 to 1000
O=C(Nc1sc(Cl)cc1C(=O)NCCN1CCOCC1)c1ccc(O)c(F)c1 [Example 41, 5-chloro-2-(3-fluoro-4-hydroxybenzamido)-N-(2-morpholinoethyl)thiophene-3-carboxamide.] | 100 to 1000
CN1CCN(CCNC(=O)c2cc(Cl)sc2NC(=O)c2ccc(O)c(F)c2)CC1 [Example 42, 5-chloro-2-(3-fluoro-4-hydroxybenzamido)-N-(2-(4-methylpiperazin-1-yl)ethyl)thiophene-3-carboxamide] | 1000 to 10000
O=C(Nc1ccsc1C(=O)N[C@H](CO)c1ccccc1)c1ccc(O)c(Cl)c1 [Example 48, (S)-3-(3-chloro-4-hydroxybenzamido)-N-(2-hydroxy-1-phenylethyl) thiophene-2-carboxamide] | 100 to 1000

Second part, the molecule after the results:

IC50 [nM] | SMILES
≤ 100 | COc1ccccc1CCNC(=O)c1sccc1NC(=O)c1ccc(O)c(Cl)c1 [Example 1, 3-(3-chloro-4-hydroxybenzamido)-N-(2-methoxyphenethyl)thiophene-2-carboxamide]
≤ 100 | CC(C)CNC(=O)c1sccc1NC(=O)c1ccc(O)c(Cl)c1 [Example 2, 3-(3-chloro-4-hydroxybenzamido)-N-isobutylthiophene-2-carboxamide]
≤ 100 | CC(C)(C)CCNC(=O)c1sccc1NC(=O)c1ccc(O)c(Cl)c1 [Example 3, 3-(3-chloro-4-hydroxybenzamido)-N-(3,3-dimethylbutyl)thiophene-2-carboxamide]
100 to 1000 | COc1ccccc1CCNC(=O)c1c(NC(=O)c2ccc(O)c(Cl)c2)sc2c1CCN(C)C2 [Example 15, 2-(3-chloro-4-hydroxybenzamido)-N-(2-methoxyphenethyl)-6-methyl-4,5,6,7-tetrahydrothieno[2,3-c]pyridine-3-carboxamide]
≤ 100 | O=C(Nc1cc(Cl)sc1C(=O)NC1(c2ccc(F)cc2)CC1)c1cc(F)c(O)c(F)c1 [Example 35, 5-chloro-3-(3,5-difluoro-4-hydroxybenzamido)-N-(1-(4-fluorophenyl)cyclopropyl)thiophene-2-carboxamide]
≤ 100 | O=C(Nc1cc(Cl)sc1C(=O)NCCc1ccc(Cl)cc1Cl)c1ccc(O)c(F)c1 [Example 36, 5-chloro-N-(2,4-dichlorophenethy1)-3-(3-fluoro-4-hydroxybenzamido)thiophene-2-carboxamide]
≤ 100 | O=C(Nc1cc(Cl)sc1C(=O)NCCN1CCOCC1)c1ccc(O)c(F)c1 [Example 38, 5-chloro-3-(3-fluoro-4-hydroxybenzamido)-N-(2-morpholinoethyl)thiophene-2-carboxamide]
≤ 100 | O=C(Nc1cc(Cl)sc1C(=O)NCCc1ccc(F)cc1F)c1ccc(O)c(F)c1 [Example 39, 5-chloro-N-(2,4-difluorophenethyl)-3-(3-fluoro-4-hydroxybenzamido)thiophene-2-carboxamide]
≤ 100 | O=C(Nc1sc(Cl)cc1C(=O)NCCc1ccccc1OC(F)(F)F)c1ccc(O)c(Cl)c1 [Example 40, 5-chloro-2-(3-chloro-4-hydroxybenzamido)-N-(2-(trifluoromethoxy)phenethyl)thiophene-3-carboxamide]
≤ 100 | O=C(Nc1sc(Cl)cc1C(=O)NCCc1ccccc1F)c1ccc(O)c(F)c1 [Example 43, 5-chloro-2-(3-fluoro-4-hydroxybenzamido)-N-(2-fluorophenethyl)thiophene-3-carboxamide]
≤ 100 | O=C(Nc1cc(Cl)sc1C(=O)NCCc1ccccc1C(F)(F)F)c1cc(F)c(O)c(F)c1 [Example 44, 5-chloro-3-(3,5-difluoro-4-hydroxybenzamido)-N-(2-(trifluoromethyl)phenethyl) thiophene-2-carboxamide]
≤ 100 | O=C(Nc1cc(Cl)sc1C(=O)NCCc1ccccc1C(F)(F)F)c1ccc(O)c(Cl)c1 [Example 45, 5-chloro-3-(3-chloro-4-hydroxybenzamido)-N-(2-(trifluoromethyl)phenethyl) thiophene-2-carboxamide]
≤ 100 | O=C(Nc1sc(Cl)cc1C(=O)NCCc1ccccc1OC(F)(F)F)c1ccc(O)c(F)c1 [Example 46, 5-chloro-2-(3-fluoro-4-hydroxybenzamido)-N-(2-(trifluoromethoxy)phenethyl) thiophene-3-carboxamide]
≤ 100 | CC(C)(C)CCNC(=O)c1sccc1NC(=O)c1cc(F)c(O)c(Cl)c1 [Example 47, 3-(3-chloro-5-fluoro-4-hydroxybenzamido)-N-(3,3-dimethylbutyl)thiophene-2-carboxamide]
≤ 100 | O=C(Nc1ccsc1C(=O)N[C@@H](CO)c1ccccc1)c1ccc(O)c(Cl)c1 [Example 49, (R)-3-(3-chloro-4-hydroxybenzamido)-N-(2-hydroxy-1-phenylethyl)thiophene-2-carboxamide]
